# Experimental data: article PMC4893804 (Journal of medicinal chemistry, 2015)
# Experiments:
# [1] = test system: herpetic DNA polymerases (HCMV, HSV-1, VZV); assay: Herpetic DNA polymerase assays, pooled statements in text; type: biochemical
# [2] = test system: human DNA polymerases α and β; assay: Human DNA polymerase α and β assays, pooled statements in text; type: biochemical
# HIV-1 RT = HIV-1 RT (Human immunodeficiency virus type 1 group M subtype B, UniProt P03366); assay: HIV-1 reverse transcriptase assay with homopolymeric template/primers; type: biochemical
# HSV-1 DNA polymerase = HSV-1 DNA polymerase (Human herpesvirus 1, UniProt P04293); assay: Enzyme assay with HSV-1 DNA polymerase; type: biochemical
# Sequence of HSV-1 DNA polymerase (P04293 whole entry): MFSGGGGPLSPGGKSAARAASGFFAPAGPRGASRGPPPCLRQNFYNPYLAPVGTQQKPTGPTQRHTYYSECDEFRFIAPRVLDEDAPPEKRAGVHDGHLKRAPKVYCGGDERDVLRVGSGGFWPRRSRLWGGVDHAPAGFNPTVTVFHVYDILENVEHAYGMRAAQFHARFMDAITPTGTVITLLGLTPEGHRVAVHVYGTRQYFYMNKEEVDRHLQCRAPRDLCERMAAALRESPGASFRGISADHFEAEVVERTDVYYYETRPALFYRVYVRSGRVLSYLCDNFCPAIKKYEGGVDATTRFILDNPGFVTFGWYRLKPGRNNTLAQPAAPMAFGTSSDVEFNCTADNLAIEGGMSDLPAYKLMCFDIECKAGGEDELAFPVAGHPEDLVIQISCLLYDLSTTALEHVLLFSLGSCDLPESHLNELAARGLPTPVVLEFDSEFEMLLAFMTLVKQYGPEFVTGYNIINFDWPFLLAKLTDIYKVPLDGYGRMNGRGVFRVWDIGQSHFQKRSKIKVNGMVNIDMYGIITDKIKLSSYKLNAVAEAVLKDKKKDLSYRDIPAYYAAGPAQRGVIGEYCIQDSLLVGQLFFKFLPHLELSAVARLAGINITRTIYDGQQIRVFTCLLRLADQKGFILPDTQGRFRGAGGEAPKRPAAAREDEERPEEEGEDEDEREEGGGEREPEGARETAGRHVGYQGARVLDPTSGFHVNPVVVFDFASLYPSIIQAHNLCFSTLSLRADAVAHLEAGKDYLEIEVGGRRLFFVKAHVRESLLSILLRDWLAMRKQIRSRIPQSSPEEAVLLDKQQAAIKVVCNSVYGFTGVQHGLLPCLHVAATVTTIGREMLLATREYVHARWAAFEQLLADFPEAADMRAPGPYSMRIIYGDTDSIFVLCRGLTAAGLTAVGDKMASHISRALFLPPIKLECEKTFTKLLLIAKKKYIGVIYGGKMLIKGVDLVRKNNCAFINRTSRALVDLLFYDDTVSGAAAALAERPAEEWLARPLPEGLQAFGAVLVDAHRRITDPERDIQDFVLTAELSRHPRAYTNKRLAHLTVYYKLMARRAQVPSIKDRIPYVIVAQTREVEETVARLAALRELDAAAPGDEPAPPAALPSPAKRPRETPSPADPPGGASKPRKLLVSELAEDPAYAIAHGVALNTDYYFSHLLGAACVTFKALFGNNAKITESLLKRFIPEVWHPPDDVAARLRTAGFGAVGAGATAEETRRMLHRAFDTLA
# VZV DNA polymerase = VZV DNA polymerase (Varicella-zoster virus, UniProt P09252); assay: Enzyme assay with VZV DNA polymerase; type: biochemical
# Sequence of VZV DNA polymerase (P09252 whole entry): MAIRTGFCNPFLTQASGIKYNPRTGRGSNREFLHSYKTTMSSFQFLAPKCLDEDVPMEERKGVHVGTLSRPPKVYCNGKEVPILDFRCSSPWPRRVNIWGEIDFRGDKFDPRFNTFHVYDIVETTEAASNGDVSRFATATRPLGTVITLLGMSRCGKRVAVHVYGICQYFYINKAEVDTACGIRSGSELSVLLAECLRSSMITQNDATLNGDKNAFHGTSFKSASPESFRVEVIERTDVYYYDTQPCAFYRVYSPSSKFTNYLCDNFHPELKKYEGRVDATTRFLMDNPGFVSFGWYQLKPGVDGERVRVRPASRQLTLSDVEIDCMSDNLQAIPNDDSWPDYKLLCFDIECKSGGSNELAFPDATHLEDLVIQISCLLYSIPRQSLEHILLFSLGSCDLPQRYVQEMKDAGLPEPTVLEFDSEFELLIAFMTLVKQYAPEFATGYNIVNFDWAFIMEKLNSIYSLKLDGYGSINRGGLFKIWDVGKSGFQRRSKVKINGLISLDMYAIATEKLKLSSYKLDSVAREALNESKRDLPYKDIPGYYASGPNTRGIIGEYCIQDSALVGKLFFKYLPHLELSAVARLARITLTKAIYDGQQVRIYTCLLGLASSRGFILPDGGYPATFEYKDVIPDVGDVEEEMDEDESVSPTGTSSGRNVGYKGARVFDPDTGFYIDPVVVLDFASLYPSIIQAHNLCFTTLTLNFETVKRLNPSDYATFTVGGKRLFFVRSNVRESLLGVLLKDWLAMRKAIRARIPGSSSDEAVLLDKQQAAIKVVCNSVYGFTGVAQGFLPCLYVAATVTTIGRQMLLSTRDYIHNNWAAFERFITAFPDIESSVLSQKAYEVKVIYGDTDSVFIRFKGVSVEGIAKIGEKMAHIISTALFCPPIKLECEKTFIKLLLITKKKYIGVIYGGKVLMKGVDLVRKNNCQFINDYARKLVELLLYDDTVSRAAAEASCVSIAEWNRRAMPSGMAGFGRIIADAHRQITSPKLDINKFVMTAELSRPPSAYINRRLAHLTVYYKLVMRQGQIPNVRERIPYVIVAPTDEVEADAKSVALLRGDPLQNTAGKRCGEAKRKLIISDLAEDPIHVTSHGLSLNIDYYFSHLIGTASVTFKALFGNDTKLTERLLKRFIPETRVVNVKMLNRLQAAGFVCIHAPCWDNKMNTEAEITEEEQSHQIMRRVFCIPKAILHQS
# Human DNA Pol α = biological target: T1, Human DNA Pol α (Homo sapiens, UniProt P09884); assay: Enzyme assay with human DNA polymerase α; type: biochemical
# T1 sequence (P09884 1-1462): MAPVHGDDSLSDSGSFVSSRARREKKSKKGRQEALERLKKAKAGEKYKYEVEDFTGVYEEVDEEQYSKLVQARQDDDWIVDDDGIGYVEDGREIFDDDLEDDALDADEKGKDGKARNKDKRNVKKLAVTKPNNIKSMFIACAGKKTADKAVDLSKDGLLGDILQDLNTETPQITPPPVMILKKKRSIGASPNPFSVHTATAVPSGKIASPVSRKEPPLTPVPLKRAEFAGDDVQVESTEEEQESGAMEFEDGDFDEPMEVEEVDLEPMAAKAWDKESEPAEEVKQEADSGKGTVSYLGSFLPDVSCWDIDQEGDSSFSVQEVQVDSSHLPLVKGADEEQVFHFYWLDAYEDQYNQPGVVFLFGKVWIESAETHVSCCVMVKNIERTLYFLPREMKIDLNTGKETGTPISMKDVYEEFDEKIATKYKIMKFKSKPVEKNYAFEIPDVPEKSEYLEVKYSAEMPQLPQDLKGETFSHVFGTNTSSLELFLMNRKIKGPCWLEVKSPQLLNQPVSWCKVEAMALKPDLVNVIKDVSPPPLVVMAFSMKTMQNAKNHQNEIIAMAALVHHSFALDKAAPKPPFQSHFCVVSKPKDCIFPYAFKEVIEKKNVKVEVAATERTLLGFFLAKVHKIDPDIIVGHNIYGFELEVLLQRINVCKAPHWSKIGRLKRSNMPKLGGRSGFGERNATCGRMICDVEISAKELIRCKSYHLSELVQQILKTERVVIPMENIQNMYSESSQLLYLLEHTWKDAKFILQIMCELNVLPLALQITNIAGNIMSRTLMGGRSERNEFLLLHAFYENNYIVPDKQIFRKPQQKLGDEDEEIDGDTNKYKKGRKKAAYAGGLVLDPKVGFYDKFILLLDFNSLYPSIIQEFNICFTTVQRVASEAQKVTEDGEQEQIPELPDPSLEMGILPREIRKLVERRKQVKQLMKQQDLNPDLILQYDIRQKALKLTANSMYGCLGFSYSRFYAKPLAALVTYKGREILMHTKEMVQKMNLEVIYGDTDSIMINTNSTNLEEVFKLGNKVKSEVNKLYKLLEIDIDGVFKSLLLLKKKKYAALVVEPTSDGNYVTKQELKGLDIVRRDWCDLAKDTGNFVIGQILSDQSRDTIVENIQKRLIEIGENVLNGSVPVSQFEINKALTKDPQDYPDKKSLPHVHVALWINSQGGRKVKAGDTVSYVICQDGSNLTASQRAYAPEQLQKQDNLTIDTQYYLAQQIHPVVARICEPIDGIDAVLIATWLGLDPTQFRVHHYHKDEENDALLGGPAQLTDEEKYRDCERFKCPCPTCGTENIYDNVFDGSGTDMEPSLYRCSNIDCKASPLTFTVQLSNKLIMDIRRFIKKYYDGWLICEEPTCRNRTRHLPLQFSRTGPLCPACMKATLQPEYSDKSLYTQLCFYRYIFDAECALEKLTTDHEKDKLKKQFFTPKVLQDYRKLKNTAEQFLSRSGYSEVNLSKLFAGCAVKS
# Human DNA Pol β = Human DNA Pol β (Homo sapiens, UniProt P06746); assay: Enzyme assay with human DNA polymerase β; type: biochemical
# [3] = biological target: bacteriophage RB69 DNA polymerase gp43 (WT) (Escherichia phage RB69, UniProt Q38087, D222A/D327A); assay: biochemical
# Sequence of bacteriophage RB69 DNA polymerase gp43 (WT) (Q38087 whole entry D222A/D327A): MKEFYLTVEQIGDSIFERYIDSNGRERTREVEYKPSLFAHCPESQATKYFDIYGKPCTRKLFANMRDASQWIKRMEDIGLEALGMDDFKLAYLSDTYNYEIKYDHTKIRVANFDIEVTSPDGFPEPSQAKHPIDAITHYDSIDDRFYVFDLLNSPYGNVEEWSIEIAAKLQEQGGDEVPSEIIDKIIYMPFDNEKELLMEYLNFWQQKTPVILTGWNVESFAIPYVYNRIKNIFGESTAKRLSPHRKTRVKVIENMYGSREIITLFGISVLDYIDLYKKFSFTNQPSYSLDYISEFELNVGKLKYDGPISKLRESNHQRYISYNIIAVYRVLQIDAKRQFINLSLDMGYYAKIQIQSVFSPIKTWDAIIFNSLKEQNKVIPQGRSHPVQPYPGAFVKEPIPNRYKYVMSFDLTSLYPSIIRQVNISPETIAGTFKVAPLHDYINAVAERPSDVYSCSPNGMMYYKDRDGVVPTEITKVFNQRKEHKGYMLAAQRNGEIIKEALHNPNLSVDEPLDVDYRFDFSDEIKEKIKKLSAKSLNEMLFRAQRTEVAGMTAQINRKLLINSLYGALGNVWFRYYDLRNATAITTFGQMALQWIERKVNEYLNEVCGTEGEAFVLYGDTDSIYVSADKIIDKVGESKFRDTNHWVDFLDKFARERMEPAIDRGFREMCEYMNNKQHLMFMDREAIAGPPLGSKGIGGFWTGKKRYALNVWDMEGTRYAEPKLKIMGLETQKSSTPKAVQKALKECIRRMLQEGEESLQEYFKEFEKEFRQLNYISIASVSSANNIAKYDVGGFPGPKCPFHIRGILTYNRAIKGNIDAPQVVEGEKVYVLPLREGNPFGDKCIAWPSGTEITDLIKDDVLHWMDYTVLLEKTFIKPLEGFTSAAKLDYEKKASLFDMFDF
# [4] = biological target: T2, RB69/ABC5 hybrid DNA polymerase (Escherichia phage RB69, UniProt Q38087, D222A/D327A/F479V/I557M/L561V/L562T/N480A/N558A/R559L/V478W); assay: biochemical; set-up: species or system bacteriophage RB69 / HCMV
# T2 sequence (Q38087 whole entry D222A/D327A/V478W/F479V/N480A/I557M/N558A/R559L/L561V/L562T): as the sequence (Q38087 whole entry D222A/D327A) above, with V478W, F479V, N480A, I557M, N558A, R559L, L561V, L562T counted along it
# M184I HIV-1 RT = M184I HIV-1 RT (Human immunodeficiency virus type 1 group M subtype B, UniProt P03366, M783I); assay: Mutant HIV-1 RT assay
# Y115F HIV-1 RT = Y115F HIV-1 RT (Human immunodeficiency virus type 1 group M subtype B, UniProt P03366, Y714F); assay: Mutant HIV-1 RT assay
# [5] = biological target: HCMV DNA polymerase (UL54) (Human cytomegalovirus, UniProt P08546); assay: Enzyme assay with HCMV DNA polymerase; type: biochemical; conditions: IC50 HCMV DNA Pol, activated calf thymus DNA, [3H]dTTP
# Sequence of HCMV DNA polymerase (UL54) (P08546 whole entry): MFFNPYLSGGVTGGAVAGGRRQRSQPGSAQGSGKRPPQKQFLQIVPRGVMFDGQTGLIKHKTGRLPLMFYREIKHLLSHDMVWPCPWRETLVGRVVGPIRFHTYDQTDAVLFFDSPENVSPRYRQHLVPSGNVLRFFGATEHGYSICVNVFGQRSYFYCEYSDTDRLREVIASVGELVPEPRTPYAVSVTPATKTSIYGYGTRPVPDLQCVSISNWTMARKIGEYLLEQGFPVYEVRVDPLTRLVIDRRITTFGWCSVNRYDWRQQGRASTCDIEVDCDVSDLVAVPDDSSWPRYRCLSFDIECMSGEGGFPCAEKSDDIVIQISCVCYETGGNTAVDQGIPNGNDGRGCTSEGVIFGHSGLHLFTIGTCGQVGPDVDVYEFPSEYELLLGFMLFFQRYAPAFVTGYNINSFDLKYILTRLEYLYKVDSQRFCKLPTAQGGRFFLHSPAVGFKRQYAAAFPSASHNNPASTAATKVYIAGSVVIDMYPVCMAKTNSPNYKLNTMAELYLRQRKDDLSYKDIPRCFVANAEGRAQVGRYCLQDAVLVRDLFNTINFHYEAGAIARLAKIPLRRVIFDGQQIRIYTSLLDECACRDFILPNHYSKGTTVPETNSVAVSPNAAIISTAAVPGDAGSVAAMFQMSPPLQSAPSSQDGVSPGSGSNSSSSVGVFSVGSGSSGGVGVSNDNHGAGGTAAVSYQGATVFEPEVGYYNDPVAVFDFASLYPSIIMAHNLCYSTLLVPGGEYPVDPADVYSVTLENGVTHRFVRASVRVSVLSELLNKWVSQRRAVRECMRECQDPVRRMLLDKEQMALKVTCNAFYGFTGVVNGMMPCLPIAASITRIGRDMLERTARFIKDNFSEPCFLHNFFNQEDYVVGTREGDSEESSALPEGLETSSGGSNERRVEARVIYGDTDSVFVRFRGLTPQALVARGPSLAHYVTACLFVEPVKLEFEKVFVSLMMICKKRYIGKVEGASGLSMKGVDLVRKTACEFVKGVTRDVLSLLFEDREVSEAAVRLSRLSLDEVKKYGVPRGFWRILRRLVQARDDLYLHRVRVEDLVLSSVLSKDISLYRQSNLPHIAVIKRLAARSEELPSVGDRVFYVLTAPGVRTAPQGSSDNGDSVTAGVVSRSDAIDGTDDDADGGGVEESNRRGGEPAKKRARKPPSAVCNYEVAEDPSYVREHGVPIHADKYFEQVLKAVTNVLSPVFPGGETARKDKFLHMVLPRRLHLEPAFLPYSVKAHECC
# [6] = biological target: T2, RB69/ABC5 hybrid DNA polymerase; conditions: cited from earlier work
# [7] = IC50 HIV-1 RT Poly rA.dT ([3H]dTTP), Table 7, Poly rA.dT, [3H]dTTP
# [8] = IC50 HIV-1 RT Poly rC.dG ([3H]dGTP), Poly rC.dG, [3H]dGTP
# [9] = IC50 HIV-1 RT Poly rI.dC ([3H]dCTP), Poly rI.dC, [3H]dCTP
# [10] = IC50 HIV-1 RT Poly rU.dA ([3H]dATP), Poly rU.dA, [3H]dATP
# [11] = IC50 HIV-1 RT, poly rA.dT template/primer, [3H]dTTP
# [12] = IC50 Wild-type HIV-1 RT, Table 8, wild-type RT
SMILES,inhibitory activity against herpetic DNA polymerases (in words) [1],inhibitory activity against human DNA polymerases (in words) [2],IC50 (HIV-1 RT; [7]),IC50 (HIV-1 RT; [8]),IC50 (HIV-1 RT; [9]),IC50 (HIV-1 RT; [10]),IC50 (HIV-1 RT; [11]),IC50 (HIV-1 RT; [12]),IC50 (HSV-1 DNA polymerase),IC50 (VZV DNA polymerase),IC50 (Human DNA Pol α),IC50 (Human DNA Pol β),IC50 (M184I HIV-1 RT),IC50 (Y115F HIV-1 RT),IC50 [5],sensitivity of chimera RB69/ABC5 to active-site inhibitors [6],further results
Cc1cn(C[C@@H]2CCC[C@H]2COC(C(=O)O)P(=O)(O)O)c(=O)[nH]c1=O (relative stereo) [Compound 6o],"poor, if any, inhibitory activity","poor, if any, inhibitory activity",–,–,–,–,–,–,–,–,–,–,–,–,–,–,–
"Cc1cn(C/C=C\COC(C(=O)O)P(=O)(O)O)c(=O)[nH]c1=O (stereo not drawn) [Compound 6g, cis-2-(4-(2,4-Dioxo-5-methyl-pyrimidin-1-yl)but-2-enyloxy)-2-phosphonoacetic acid]",–,–,235 ± 16 µM,> 500 µM,> 500 µM,≥ 500 µM,235 ± 16 µM,320 ± 89 µM,3.7 ± 1.7 µM,2.2 ± 0.1 µM,14 ± 7 µM,> 500 µM,> 2500 µM,655 ± 409 µM,–,–,loss of anti-HIV-1 RT activity compared to prototype thymine-α-CNP (HIV-1 RT; ratio of IC50 vs thymine-α-CNP): ~ 600 fold; IC50 [3]: > 100 µM; IC50 [4]: > 100 µM; selectivity for herpetic DNA polymerases compared to human DNA polymerase α ([1]; herpetic vs human DNA polymerase α): 4- to 7 fold; higher potency against herpetic DNA polymerases compared to butyl analogue 6h ([1]; ratio vs 6h): 8- to 20 fold; superior activity against herpetic DNA polymerases than against HIV-1 RT ([1]; selectivity herpetic over HIV-1 RT): ~ 100 fold
"Nc1ccn(C/C=C\COC(C(=O)O)P(=O)(O)O)c(=O)n1 (stereo not drawn) [Compound 6m, 2-Cis-(4-(4-amino-2-oxopyrimidin-1(2H)-yl)but-2-enyloxy)-2-phosphonoacetic acid]",–,–,270 ± 33 µM,> 500 µM,273 ± 54 µM,> 500 µM,270 ± 33 µM,318 ± 73 µM,12 ± 6 µM,2.9 ± 0.9 µM,414 ± 22 µM,> 500 µM,> 1250 µM,408 ± 16 µM,16 ± 8 µM,–,–
"O=C(O)C(OC/C=C\CO)P(=O)(O)O (stereo not drawn) [Compound 6n, 2-Cis-((4-hydroxybut-2-en-1-yl)oxy)-2-phosphonoacetic acid]",insensitive,insensitive,–,–,–,–,–,–,–,–,–,–,–,–,–,–,inhibitory activity against HIV-1 RT (in words) (HIV-1 RT): insensitive
"O=C(O)P(=O)(O)O [PFA, phosphonoformic acid, reference compound]",–,–,–,–,–,–,–,–,0.44 ± 0.25 µM,–,7.7 ± 6.5 µM,> 100 µM,–,–,9.8 ± 5.8 µM,sensitive,IC50 (HIV-1 RT; IC50 HIV-1 RT): 0.34 ± 0.01 µM; IC50 (HIV-1 RT; IC50 HIV-1 RT Poly rA.dT ([3H]dTTP)): 0.34 ± 0.01 µM; IC50 (HIV-1 RT; IC50 HIV-1 RT Poly rC.dG ([3H]dGTP)): 17 ± 2 µM; IC50 (HIV-1 RT; IC50 HIV-1 RT Poly rI.dC ([3H]dCTP)): 6.8 ± 2 µM; IC50 (HIV-1 RT; IC50 HIV-1 RT Poly rU.dA ([3H]dATP)): 0.75 ± 0.13 µM
Nc1nc2c(ncn2COCCOP(=O)(O)OP(=O)(O)OP(=O)(O)O)c(=O)[nH]1 [acyclovir triphosphate],–,–,–,–,–,–,–,–,–,–,–,–,–,–,–,sensitive,–
